How the values were obtained:
Format in all cases: biochemical
[1] = system: N-acetylamino acid racemase (AAR) from Amycolatopsis orientalis subsp. lurida; assay: Racemase activity assay of recombinant N-acetylamino acid racemase (polarimeter); settings: substrate 25 mM, Tris/HCl 50 mM pH 8.0, cobalt chloride 6 mM, ca. 150 μg AAR, 30° C., 3 to 12 hours, λ=365 nm
Method: Detection of the racemase activity of a recombinant N-acetylamino acid racemase AAR enzyme The substrate spectrum of the N-acetylamino acid racemase (AAR) from Amycolatopsis orientalis subsp. lurida was tested with the enzyme assay described herein below. The composition of the assay was as follows: [table] Enantiomer-pure amino acid derivatives were used in the assay and the formation of the corresponding racemate was followed using a polarimeter (Perkin-Elmer 241). The incubation was carried out at 30° C. (heatable cell) for 3 to 12 hours. The measurements were made at a wavelength of λ=365 nm.

[2] = system: L-acylase from Aspergillus oryzae; assay: L-acylase activity assay, producing L-Met from Moc-L-Met; settings: Moc-L-Met 25 mM, Tris/HCl 50 mM pH 8.0, cobalt chloride 6 mM, L-Acylase 2.0 U, final volume 200 μL; L-Met detected by RP HPLC
Source text: Moc-L-Met was used in an assay to determine the activity of the L-acylase from Aspergillus oryzae. A. Producing L-Met from Moc-L-Met [table] D-Met and L-Met were detected by reverse phase HPLC (RP 18). The unit data for the enzymes refer to specific activity with N-Ac-L-Met and N-Ac-D-Met as substrate.

[3] = system: D-acylase from Aspergillus oryzae in the presence of an N-acetylamino acid racemase (AAR) from Amycolatopsis orientalis subsp. lurida; assay: D-acylase activity assay in the presence of AAR, producing D-Met from Moc-L-Met; settings: Moc-L-Met 25 mM, Tris/HCl 50 mM pH 8.0, cobalt chloride 6 mM, D-Acylase 2.4 U, AAR 0.4 U, final volume 200 μL; D-Met detected by RP HPLC
Source text: B. Producing D-Met from Moc-L-Met Moc-L-Met was used in an assay to determine the activity of the D-acylase from Aspergillus oryzae in the presence of an N-acetylamino acid racemase (AAR) from Amycolatopsis orientalis subsp. lurida. [table] D-Met and L-Met were detected by reverse phase HPLC (RP 18). The unit data for the enzymes refer to specific activity with N-Ac-L-Met and N-Ac-D-Met as substrate.

COC(=O)N[C@@H](CCSC)C(=O)O [N-methyloxycarbonyl-L-Met]
Specific Activity of the AAR [1]: 42 mU/mg | Volume activity [2]: 1.4 U/ml | Volume activity [3]: 0.6 U/ml
